Experimental data: US6491953B1, “Controlled release compositions and method” (Amcol International Corporation, priority 1999, dated 2002)

Experiments:
Type in all cases: physicochemical
[1] = Adsorption / entrapment of solid and liquid materials on POLYPORE E 200 microparticles (Example 1); conditions: adsorbed on microparticles of Example 1 (POLYPORE E 200)
Source text: The adsorbent polymer microparticles made by the suspension polymerization technique include at least two polyunsaturated monomers, preferably allyl methacrylate and an ethylene glycol dimethacrylate, and, optionally, monounsaturated monomers. The microparticles are characterized by being open to their interior, due to either particle fracture upon removal of a porogen after polymerization or to subsequent milling. […] In a preferred embodiment, the broken sphere microparticles are characterized by a mean unit diameter from about 1 to about 50 microns, more preferably from about 1 to about 25 microns, most preferably, from about 1 to about 20 microns.
The copolymer powder of Example 1 was mixed with zinc pyrithione (solids having a particle size of 3 to 5 microns slurried in water) in an amount of 12 grams of slurry per one gram of the copolymer, then dried in an oven at 80° C. to evaporate water. […] Zinc pyrithione was supplied by Ruetger Nease Company, as mixture of 48% of zinc pyrithione, 51% water, and 1% zinc chloride, and is used as antidandruff component in hair care products, e.g., antidandruff shampoos.
The copolymer of Example 1 was loaded with a methanol/salicylic acid solution in an amount of 12 grams per gram, and dried in an oven at 80° C. to evaporate the methanol. […] Salicylic acid is an antiseptic and antifungal agent.
Retinol was dissolved in same amount of ether. The solution (5.5 grams) was adsorbed on 1 gram of the adsorbent polymer of Example 1. […] Usually retinol is in the form of sticky crystals, is light sensitive, and is skin irritant. Retinol is used in cosmetic formulations and as a vitamin.

[2] = Adsorption / entrapment of solid and liquid active agents on POLYPORE L 200 microparticles (Example 2); conditions: adsorbed on microparticles of Example 2 (POLYPORE L 200)
Experimental: The copolymer of Example 2 was loaded with a methanol/salicylic acid solution to an amount of 12 grams per gram, and dried in an oven at 80° C. to evaporate methanol. The resulting dry product was a white, fine powder, with […] entrapped salicylic acid, i.e., 2.8 grams per gram.
Retinol was dissolved in an equal weight amount of ether, then 5.5 grams of the solution was adsorbed on 1 gram of the adsorbent polymer of Example 2. Thereafter, ether was evacuated under vacuum, and a free-flowing light yellow powder was obtained. The adsorbed amount of retinol was 2.75 grams per gram, i.e., 73%. Usually, retinol is in form of sticky crystals, is light sensitive, and a skin irritant.
The microparticles of Example 2 (POLYPORE™ L 200) also had various other solid and liquid active agents adsorbed thereto, as shown in Table 2: […]

[3] = Stability (discoloration) of ascorbic acid compositions added to water
Experimental: The stability of the three compositions was tested by adding individual portions of the three compositions to water at 25° C. and at 45° C. A control solution of 1-ascorbic acid in water discolored after four hours at 45° C. and after five days at room temperature. […] A polymer-ascorbic acid solution, without the addition of a release retardant, also discolored during the test. Accordingly, a release retardant protects and stabilizes an active agent adsorbed onto an adsorbent polymer.

Row | Compound | Free-Flowing (g/g) adsorbed [1] | Total (g/g) adsorbed [1] | Free-Flowing (g/g) adsorbed [2] | Total (g/g) adsorbed [2] | time after which solution discolored ([3]; in water at 45° C.) | time after which solution discolored ([3]; in water at room temperature)
1 | COc1ccc(C(=O)c2ccccc2)c(O)c1 [Benzophenone-3] | 9.2 g/g | 12.3 g/g | 9.1 g/g | 12.8 g/g |  | 
2 | OCC(O)CO [Glycerin] | 6.0 g/g | 8.0 g/g | 7.6 g/g | 10.0 g/g |  | 
3 | CC(=O)OCc1ccccc1 [Benzyl Acetate] | 10.2 g/g | 12.3 g/g | 9.9 g/g | 12.7 g/g |  | 
4 | Oc1cc(Cl)ccc1Oc1ccc(Cl)cc1Cl [IRGASAN DP 300, 5-chloro-2-(2,4-dichlorophenoxy)phenol] |  | 10.0 g/g |  | 10.7 g/g |  | 
5 | Cyclomethicone [Cyclomethicone (DC 244)] | 9.6 g/g | 12.0 g/g | 10.8 g/g | 15.0 g/g |  | 

Further lines, results first:

Row | Free-Flowing (g/g) adsorbed [1] | Total (g/g) adsorbed [1] | Free-Flowing (g/g) adsorbed [2] | Total (g/g) adsorbed [2] | time after which solution discolored ([3]; in water at 45° C.) | time after which solution discolored ([3]; in water at room temperature) | Compound
6 | 5.6 g/g | 7.2 g/g | 7.0 g/g | 9.2 g/g |  |  | CC(=O)Oc1c(C)c(C)c2c(c1C)CCC(C)(CCC[C@H](C)CCC[C@H](C)CCCC(C)C)O2 (stereo partly shown) [Vitamin E Acetate]
7 | 8.0 g/g | 10.7 g/g | 9.5 g/g | 11.4 g/g |  |  | CCCCCCCCCCCCCC(=O)OC(C)C [Isopropyl Myristate]
8 |  |  |  |  | four | five | O=C1O[C@H]([C@@H](O)CO)C(O)=C1O [1-ascorbic acid]
